Results published in patent US20250051338A1, “TYK2 DEGRADERS AND USES THEREOF” (Kymera Therapeutics, Inc., priority 2021, published 2025).

Assays:
Format in all cases: cell-based
TYK2 [1] = molecular target: T1, TYK2 (Homo sapiens, UniProt P29597); assay: TYK2 degradation MSD assay in human PBMC cells; set-up: endogenous in cells; host or cells: human PBMC; conditions: 4 to 24 hours incubation, read-out: TYK2 MSD DC50 rating in human PBMC
Summary of the method: (§1)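 0.4 million cells/well; cpd 9-dose 1:3 titration, top 1–10 μM; 4–24 h, 37° C, 5% CO2; RIPA lysis; TYK2 capture/detection sandwich on MSD, SULFO-TAG anti-rabbit secondary; DC50 via 4-parameter fit.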

TYK2 [2] = molecular target: T1, TYK2; assay: TYK2 degradation MSD assay in EBV-B cells; set-up: endogenous in cells; host or cells: EBV-B cells; conditions: 4 to 24 hours incubation, read-out: TYK2 MSD DC50 rating in EBV-B
Summary of the method: as §1

TYK2 [3] = molecular target: T1, TYK2; assay: TYK2 degradation MSD assay in OCI-LY10 cells; set-up: endogenous in cells; host or cells: EBV-B cells; conditions: 4 to 24 hours incubation, read-out: TYK2 MSD DC50 rating in OCI-LY10
Summary of the method: as §1

T1 sequence (P29597 whole entry): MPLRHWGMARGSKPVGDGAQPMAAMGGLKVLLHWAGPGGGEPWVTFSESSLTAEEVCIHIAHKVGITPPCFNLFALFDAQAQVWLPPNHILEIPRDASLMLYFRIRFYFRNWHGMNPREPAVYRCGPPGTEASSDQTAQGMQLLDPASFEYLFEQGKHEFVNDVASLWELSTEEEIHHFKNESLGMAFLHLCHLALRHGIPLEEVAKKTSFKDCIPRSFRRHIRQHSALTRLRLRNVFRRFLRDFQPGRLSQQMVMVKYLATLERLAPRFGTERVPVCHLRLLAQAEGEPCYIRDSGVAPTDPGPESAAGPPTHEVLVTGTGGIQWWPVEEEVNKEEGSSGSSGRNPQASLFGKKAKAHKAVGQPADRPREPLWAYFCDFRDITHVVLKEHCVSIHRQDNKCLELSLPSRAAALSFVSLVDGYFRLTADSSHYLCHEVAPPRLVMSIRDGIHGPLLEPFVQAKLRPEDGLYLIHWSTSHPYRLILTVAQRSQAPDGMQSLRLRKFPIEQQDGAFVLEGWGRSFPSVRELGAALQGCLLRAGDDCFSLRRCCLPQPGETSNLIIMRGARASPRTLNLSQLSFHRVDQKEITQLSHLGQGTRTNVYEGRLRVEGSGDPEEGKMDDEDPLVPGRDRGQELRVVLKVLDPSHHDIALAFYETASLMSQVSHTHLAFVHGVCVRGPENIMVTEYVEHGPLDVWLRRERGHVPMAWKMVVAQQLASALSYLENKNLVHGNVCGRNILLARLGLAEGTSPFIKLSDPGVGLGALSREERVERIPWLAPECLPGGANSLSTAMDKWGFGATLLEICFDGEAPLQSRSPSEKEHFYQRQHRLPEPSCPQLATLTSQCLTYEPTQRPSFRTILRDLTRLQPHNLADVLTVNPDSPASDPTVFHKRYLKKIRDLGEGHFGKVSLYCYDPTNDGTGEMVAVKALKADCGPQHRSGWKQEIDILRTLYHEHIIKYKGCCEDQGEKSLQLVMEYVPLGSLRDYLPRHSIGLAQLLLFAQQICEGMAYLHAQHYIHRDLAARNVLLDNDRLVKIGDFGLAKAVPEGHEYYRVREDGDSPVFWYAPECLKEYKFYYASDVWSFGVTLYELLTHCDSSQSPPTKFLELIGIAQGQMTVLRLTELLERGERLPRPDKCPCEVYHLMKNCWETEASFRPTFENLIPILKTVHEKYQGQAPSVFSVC

| SMILES | DC50 (TYK2 [1]) [µM] | DC50 (TYK2 [2]) [µM] | DC50 (TYK2 [3]) [µM] |
| --- | --- | --- | --- |
| CNc1cc(Nc2cccn(-c3ccc(C(=O)N(C)C4CCN(Cc5cccc6c5n(C)c(=O)n6C5CCC(=O)NC5=O)CC4)cn3)c2=O)nn2c(C(=O)N[C@@H]3C[C@@H]3F)cnc12 (stereo partly drawn) [Example K279] | < 0.001 | > 0.1 | > 0.1 |
| CNc1cc(Nc2cccc(-c3ccc(CN4CCN(c5ccc(-c6ccc7c(c6)n(C)c(=O)n7C6CCC(=O)NC6=O)cc5)CC4)cn3)c2)nn2c(-c3cn(C(C)C)nn3)cnc12 (stereo not drawn) [Example K534] | > 0.1 | > 0.1 | 0.001 to 0.01 |
| CNc1cc(Nc2cccn(-c3cccc(C(=O)NCCCCCCc4cccc5c4n(C)c(=O)n5C4CCC(=O)NC4=O)c3)c2=O)nn2c(C(=O)N[C@@H]3C[C@@H]3F)cnc12 (stereo partly drawn) [Example K222] | 0.001 to 0.01 | > 0.1 | > 0.1 |
| CNC(=O)c1cnc(Nc2ccc(C3CCN(Cc4ccc5c(c4)n(C)c(=O)n5C4CCC(=O)NC4=O)CC3)cn2)cc1Nc1cccc(-c2ncc(F)cn2)c1OC (stereo not drawn) [Example K197] | < 0.001 | > 0.1 | > 0.1 |
| CNc1cc(N2CCc3c(N4CCN(C5CCN(c6ccc7c(c6)n(C)c(=O)n7C6CCC(=O)NC6=O)CC5)CC4)cccc32)nn2c(C(=O)N[C@@H]3C[C@@H]3F)cnc12 (stereo partly drawn) [Example K645] | > 0.1 | > 0.1 | < 0.001 |
| CNC1=CC(Nc2cccc(-c3ccc(CN4CC5(CCN(c6cccc7c(C8CCC(=O)NC8=O)cccc67)CC5)C4)cn3)c2)=NC2C(C(=O)N[C@@H]3C[C@@H]3F)=CN=C12 (stereo partly drawn) [Example K512] | > 0.1 | < 0.001 | 0.001 to 0.01 |
| CNc1cc(Nc2cccn(-c3ccc(C(=O)NCCCCCCCc4ccc5c(c4)n(C)c(=O)n5C4CCC(=O)NC4=O)cn3)c2=O)nn2c(C(=O)N[C@@H]3C[C@@H]3F)cnc12 (stereo partly drawn) [Example K260] | < 0.001 | > 0.1 | > 0.1 |
| CNc1cc(-c2cnn(C3CN(C(=O)NCCCCCCc4cccc5c4n(C)c(=O)n5C4CCC(=O)NC4=O)C3)c2)nn2c(C(=O)N[C@@H]3C[C@@H]3F)cnc12 (stereo partly drawn) [Example K317] | > 0.1 | > 0.1 | > 0.1 |
| CNc1cc(Nc2cccn(-c3ccc(C(=O)N4CC5(CCN(c6ccc7c(c6)n(C)c(=O)n7C6CCC(=O)NC6=O)CC5)C4)cn3)c2=O)nn2c(C(=O)N[C@@H]3C[C@@H]3F)cnc12 (stereo partly drawn) [Example K388] | > 0.1 | > 0.1 | > 0.1 |
| [2H]C([2H])([2H])NC(=O)c1nnc(Nc2ccc(CN(C)CC3CCN(c4ccc5c(c4)n(C)c(=O)n5C4CCC(=O)NC4=O)CC3)cn2)cc1Nc1cccc(F)c1OC (stereo not drawn) [Example K712] | > 0.1 | < 0.001 | > 0.1 |
| CNc1cc(Nc2cccn(-c3ccc(C(=O)N4CCC(CN(C)c5ccc6c(c5)n(C)c(=O)n6C5CCC(=O)NC5=O)CC4)cn3)c2=O)nn2c(C(=O)N[C@@H]3C[C@@H]3F)cnc12 (stereo partly drawn) [Example K390] | < 0.001 | > 0.1 | > 0.1 |
| CNc1cc(N2CCc3c(N4CCC(CN5CC6(C5)CN(c5ccc(-c7ccc8c(c7)n(C)c(=O)n8C7CCC(=O)NC7=O)cc5)C6)CC4)cccc32)nn2c(C(=O)N[C@@H]3C[C@@H]3F)cnc12 (stereo partly drawn) [Example K573] | > 0.1 | > 0.1 | 0.001 to 0.01 |
| CNC(=O)c1cnc(Nc2ccc(CN3CCC(OCC#Cc4cccc5c4n(C)c(=O)n5C4CCC(=O)NC4=O)CC3)cn2)cc1Nc1cccc(-c2ncc(F)cn2)c1OC (stereo not drawn) [Example K151] | > 0.1 | < 0.001 | > 0.1 |
| CNc1cc(Nc2cccc(CN3CC4(CCN(c5ccc6c(c5)n(C)c(=O)n6C5CCC(=O)NC5=O)CC4)C3)c2)nn2c(C(=O)NC3CC3)cnc12 (stereo not drawn) [Example K614] | > 0.1 | > 0.1 | > 0.1 |
| CNc1cc(-c2cn(C)c3c(C4CCN(CC5CCN(c6ccc(-c7ccc8c(c7)n(C)c(=O)n8C7CCC(=O)NC7=O)cc6)CC5)CC4)cccc23)nn2c(C(=O)N[C@@H]3C[C@@H]3F)cnc12 (mixture of isomers) [Example K540] | > 0.1 | > 0.1 | 0.001 to 0.01 |
| CNc1cc(Nc2cccn(-c3ccc(C(=O)N4CCC(OCCCc5ccc6c(c5)n(C)c(=O)n6C5CCC(=O)NC5=O)CC4)cn3)c2=O)nn2c(C(=O)N[C@@H]3C[C@@H]3F)cnc12 (stereo partly drawn) [Example K407] | > 0.1 | > 0.1 | < 0.001 |
| CNc1cc(Nc2cccn(-c3ccc(CN4CCN(CC5CCN(c6ccc(-c7ccc8c(c7)n(C)c(=O)n8C7CCC(=O)NC7=O)cc6)CC5)CC4)cn3)c2=O)nn2c(C(=O)N[C@@H]3C[C@@H]3F)cnc12 (stereo partly drawn) [Example K514] | > 0.1 | > 0.1 | < 0.001 |
